This note sets out measurements from the supplement of paper PMC4862054.

Values joined by “and” are separate entries in the source; they are usually repeats but may differ in a detail not shown here. Identical values can stand only once.

Holding throughout (assay): normalised viability (% of control), CellTiter-Blue; higher = more viable cells (about 100 = DMSO control)
Holding throughout (conditions): incubation time: 72 h

Experiment [1] has as its system CAL-148. As for the experimental part: (§1)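 DSRT, CellTiter-Blue viability, 72 h incubation. Signal is normalised to DMSO and benzethonium chloride controls. Value is the normalised response at dose 9.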
For experiment [2], the system named is CAL-51. The protocol: as §1
Experiment [3] relates to CAL-85-1. The protocol: as §1
Experiment [4] concerns DU-4475. The protocol:
as §1

Experiment [5] relates to HDQ-P1. The protocol:
as §1

In experiment [6] the test system is MDA-MB-453. As for the experimental part:
as §1

Experiment [7] relates to CAL-148. The protocol:
(§2)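 DSRT, CellTiter-Blue viability, 72 h incubation. Signal is normalised to DMSO and benzethonium chloride controls. Value is the normalised response at dose 8.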
The source holds these as a separate data set.

The test system of experiment [8] is CAL-51. As for the experimental part:
as §2
This is another data set of the same source.

In experiment [9] the test system is CAL-85-1. The protocol:
as §2
This is another data set of the same source.

The test system of experiment [10] is DU-4475. The protocol:
as §2
This is another data set of the same source.

The test system of experiment [11] is HDQ-P1. The protocol:
as §2
The source holds these as a separate data set.

Experiment [12] deals with MDA-MB-453. As for the experimental part: as §2
This is another data set of the same source.

In the case of `C[C@]12CC[C@@H]3c4ccc(OC(=O)N(CCCl)CCCl)cc4CC[C@H]3[C@@H]1CC[C@@H]2O` [Estramustine] (990 nM), the normalised viability was found to be 111% in the experiment with CAL-148 [1]; 84% in the experiment with CAL-51 [2]; 110% in the experiment on CAL-85-1 [3]; 89.9% in the experiment with DU-4475 [4]; 99.5% in the experiment on HDQ-P1 [5]; 101% in the experiment with MDA-MB-453 [6].

With `C[C@]1(O)C[C@@H](c2nc(-c3ccc4ccc(-c5ccccc5)nc4c3)c3c(N)nccn32)C1` [OSI-906] (10000 nM), the normalised viability with CAL-148 [1] was determined as 118%; in the experiment on CAL-51 [2] it was 81%; with CAL-85-1 [3], 67.4%; in the experiment with DU-4475 [4] it was 92.6%; with HDQ-P1 [5] it was 32.4%; in the experiment on MDA-MB-453 [6] it was 65.9%.

Regarding `CC(=O)c1c(C)c2cnc(Nc3ccc(N4CCNCC4)cn3)nc2n(C2CCCC2)c1=O` (10000 nM), the normalised viability in the experiment on CAL-148 [1] was found to be 87.6%; with CAL-51 [2] it was 50.8%; in the experiment on CAL-85-1 [3], 78.2%; in the experiment with DU-4475 [4] it was 85.9%; with HDQ-P1 [5], 93.5%; with MDA-MB-453 [6] it was 61.1%.

With `COc1cc(F)c(F)c(Nc2ccc(I)cc2F)c1NS(=O)(=O)C1(C[C@H](O)CO)CC1` [RDEA119] (10000 nM), the normalised viability is 71.5% in the experiment on CAL-148 [1]; 60.4% with CAL-51 [2]; 29.9% in the experiment with CAL-85-1 [3]; 0.93% with DU-4475 [4]; 51.1% in the experiment on HDQ-P1 [5]; 36.1% in the experiment on MDA-MB-453 [6].

Take `CC(=O)O[C@@]12CO[C@@H]1C[C@H](O)[C@@]1(C)C(=O)[C@H](O)C3=C(C)[C@@H](OC(=O)[C@H](O)[C@@H](NC(=O)OC(C)(C)C)c4ccccc4)C[C@@](O)([C@@H](OC(=O)c4ccccc4)[C@H]21)C3(C)C` [Docetaxel] (300 nM): the normalised viability is 22.2% and 19.1% with CAL-148 [7]; 17.9% and 12% in the experiment on CAL-51 [8]; 30.9% and 28.7% in the experiment on CAL-85-1 [9]; 12.4% and 8.14% with DU-4475 [10]; 37.9% and 31.2% with HDQ-P1 [11]; 24.4% and 23.9% in the experiment on MDA-MB-453 [12].

For `CC[C@@H]1C(=O)OC[C@@H]1Cc1cncn1C` [Pilocarpine] (12000 nM), the normalised viability with CAL-148 [7] is 105%; with CAL-51 [8] it was 107%; with CAL-85-1 [9], 92.5%; with DU-4475 [10], 88%; with HDQ-P1 [11], 127%; in the experiment on MDA-MB-453 [12], 117%.

For the compound `O=NN(CCCl)C(=O)NCCCl` [Carmustine] (3000 nM), the normalised viability with CAL-148 [7] came out at 102%; in the experiment on CAL-51 [8] it was 102%; in the experiment on CAL-85-1 [9], 95.7%; in the experiment with DU-4475 [10], 90.5%; in the experiment with HDQ-P1 [11] it was 108%; with MDA-MB-453 [12], 118%.

`Nc1nc2[nH]cnc2c(=S)[nH]1` [Thioguanine] (3000 nM): the normalised viability in the experiment with CAL-148 [7] turned out to be 78.4%; in the experiment on CAL-51 [8] it was 103%; in the experiment on CAL-85-1 [9], 75.7%; with DU-4475 [10], 115%; with HDQ-P1 [11] it was 86.4%; with MDA-MB-453 [12], 110%.

In the case of `O=P(O)(O)C(O)(Cn1ccnc1)P(=O)(O)O` [Zoledronic acid] (10000 nM), the normalised viability with CAL-148 [1] was 96.1%; with CAL-51 [2] it was 103%; in the experiment on CAL-85-1 [3], 90.4%; in the experiment on DU-4475 [4], 98%; in the experiment with HDQ-P1 [5] it was 106%; with MDA-MB-453 [6] it was 82.3%.
